{"source": "patent US11572590B2", "about": "“Methods for evaluating tumor cell spheroids using 3D microfluidic cell culture device” (Dana-Farber Cancer Institute, Inc., priority 2017, dated 2023)", "assay_in_all_cases": "SelectScreen Kinase Profiling, single point inhibition and IC50 for off-target kinases", "format_in_all_cases": "biochemical", "key": {"off-target kinases [1]": {"molecular_target": "off-target kinases (Homo sapiens, UniProt Q04759)", "sequence (Q04759 whole entry)": "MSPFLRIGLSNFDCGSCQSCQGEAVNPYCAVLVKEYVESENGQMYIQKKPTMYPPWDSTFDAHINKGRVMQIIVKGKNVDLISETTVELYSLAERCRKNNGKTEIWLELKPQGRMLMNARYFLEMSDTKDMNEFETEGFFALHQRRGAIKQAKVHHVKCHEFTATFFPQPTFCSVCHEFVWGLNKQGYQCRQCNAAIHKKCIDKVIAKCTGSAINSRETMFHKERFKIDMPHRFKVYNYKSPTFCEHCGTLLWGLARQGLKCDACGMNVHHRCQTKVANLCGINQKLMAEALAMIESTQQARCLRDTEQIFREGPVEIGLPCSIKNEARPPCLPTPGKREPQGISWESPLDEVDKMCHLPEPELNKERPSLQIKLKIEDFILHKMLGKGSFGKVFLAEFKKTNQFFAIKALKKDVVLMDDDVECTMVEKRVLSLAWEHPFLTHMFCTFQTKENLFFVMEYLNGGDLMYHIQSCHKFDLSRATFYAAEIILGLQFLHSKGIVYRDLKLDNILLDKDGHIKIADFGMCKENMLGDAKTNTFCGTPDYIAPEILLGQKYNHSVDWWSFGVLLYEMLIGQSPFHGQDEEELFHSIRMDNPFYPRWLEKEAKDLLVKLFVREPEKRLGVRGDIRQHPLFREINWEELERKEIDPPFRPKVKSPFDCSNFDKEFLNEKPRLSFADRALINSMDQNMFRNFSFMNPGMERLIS", "details": "PRKCQ (PKC theta); Cmpd1 1000 μM; ATP Km app; ZLYTE"}, "off-target kinases [2]": {"molecular_target": "T1, off-target kinases (Homo sapiens, UniProt Q8IYT8)", "T1 sequence (Q8IYT8 1-1036)": "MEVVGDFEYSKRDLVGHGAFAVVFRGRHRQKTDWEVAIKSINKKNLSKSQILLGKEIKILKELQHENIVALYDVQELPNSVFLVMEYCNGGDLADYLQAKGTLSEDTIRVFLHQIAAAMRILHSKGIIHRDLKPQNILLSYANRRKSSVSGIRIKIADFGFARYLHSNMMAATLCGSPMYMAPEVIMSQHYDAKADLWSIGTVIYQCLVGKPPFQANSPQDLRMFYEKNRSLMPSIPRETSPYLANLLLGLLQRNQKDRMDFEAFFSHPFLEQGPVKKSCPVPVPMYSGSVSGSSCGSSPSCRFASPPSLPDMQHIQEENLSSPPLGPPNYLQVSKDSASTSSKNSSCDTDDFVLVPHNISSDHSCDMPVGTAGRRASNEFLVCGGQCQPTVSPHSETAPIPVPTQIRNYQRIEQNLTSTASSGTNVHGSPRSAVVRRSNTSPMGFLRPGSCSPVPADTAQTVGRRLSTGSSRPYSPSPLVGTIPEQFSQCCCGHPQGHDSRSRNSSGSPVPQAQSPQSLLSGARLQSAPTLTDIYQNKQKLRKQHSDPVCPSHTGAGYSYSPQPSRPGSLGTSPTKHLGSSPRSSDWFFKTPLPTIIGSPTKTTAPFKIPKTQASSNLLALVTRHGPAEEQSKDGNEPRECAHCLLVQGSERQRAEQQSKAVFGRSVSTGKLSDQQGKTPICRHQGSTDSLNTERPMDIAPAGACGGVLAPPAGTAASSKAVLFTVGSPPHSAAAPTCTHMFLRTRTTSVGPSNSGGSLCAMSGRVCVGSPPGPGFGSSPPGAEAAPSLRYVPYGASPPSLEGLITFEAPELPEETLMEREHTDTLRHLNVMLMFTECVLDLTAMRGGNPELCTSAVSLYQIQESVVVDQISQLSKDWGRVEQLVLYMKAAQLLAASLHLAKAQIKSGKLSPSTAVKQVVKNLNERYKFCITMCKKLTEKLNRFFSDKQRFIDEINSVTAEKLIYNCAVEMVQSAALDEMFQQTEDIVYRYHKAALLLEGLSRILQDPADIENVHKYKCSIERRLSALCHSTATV", "details": "ULK2, LanthaScreen Binding"}, "off-target kinases [3]": {"molecular_target": "off-target kinases (Homo sapiens, UniProt Q16513)", "sequence (Q16513 whole entry)": "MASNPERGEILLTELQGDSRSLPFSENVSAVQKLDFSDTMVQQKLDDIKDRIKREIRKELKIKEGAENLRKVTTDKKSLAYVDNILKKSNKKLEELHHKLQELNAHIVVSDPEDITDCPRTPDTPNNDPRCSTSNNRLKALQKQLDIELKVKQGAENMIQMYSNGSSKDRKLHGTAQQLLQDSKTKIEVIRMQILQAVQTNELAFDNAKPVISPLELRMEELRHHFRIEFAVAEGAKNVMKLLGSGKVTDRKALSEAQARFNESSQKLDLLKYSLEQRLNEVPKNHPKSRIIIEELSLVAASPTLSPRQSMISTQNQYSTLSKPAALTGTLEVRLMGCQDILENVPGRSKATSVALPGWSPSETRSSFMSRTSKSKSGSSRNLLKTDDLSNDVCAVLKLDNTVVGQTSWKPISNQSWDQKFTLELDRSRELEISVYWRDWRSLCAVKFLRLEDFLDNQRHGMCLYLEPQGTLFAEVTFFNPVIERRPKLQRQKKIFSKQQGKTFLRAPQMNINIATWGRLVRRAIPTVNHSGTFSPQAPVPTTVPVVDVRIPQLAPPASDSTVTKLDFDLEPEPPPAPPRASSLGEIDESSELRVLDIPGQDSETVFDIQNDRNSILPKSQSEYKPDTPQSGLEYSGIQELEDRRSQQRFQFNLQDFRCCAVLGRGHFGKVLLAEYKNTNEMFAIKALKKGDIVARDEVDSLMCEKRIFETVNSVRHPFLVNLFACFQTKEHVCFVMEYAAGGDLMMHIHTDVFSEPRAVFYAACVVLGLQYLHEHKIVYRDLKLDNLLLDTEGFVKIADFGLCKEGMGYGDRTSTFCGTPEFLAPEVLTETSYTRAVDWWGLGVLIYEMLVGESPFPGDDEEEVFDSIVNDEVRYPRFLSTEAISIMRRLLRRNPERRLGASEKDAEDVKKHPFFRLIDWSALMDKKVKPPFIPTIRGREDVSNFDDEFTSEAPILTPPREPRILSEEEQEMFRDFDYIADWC", "details": "PKN2 (PRK2), LanthaScreen Binding"}, "off-target kinases [4]": {"molecular_target": "off-target kinases (Homo sapiens, UniProt Q9Y2H1)", "sequence (Q9Y2H1 whole entry)": "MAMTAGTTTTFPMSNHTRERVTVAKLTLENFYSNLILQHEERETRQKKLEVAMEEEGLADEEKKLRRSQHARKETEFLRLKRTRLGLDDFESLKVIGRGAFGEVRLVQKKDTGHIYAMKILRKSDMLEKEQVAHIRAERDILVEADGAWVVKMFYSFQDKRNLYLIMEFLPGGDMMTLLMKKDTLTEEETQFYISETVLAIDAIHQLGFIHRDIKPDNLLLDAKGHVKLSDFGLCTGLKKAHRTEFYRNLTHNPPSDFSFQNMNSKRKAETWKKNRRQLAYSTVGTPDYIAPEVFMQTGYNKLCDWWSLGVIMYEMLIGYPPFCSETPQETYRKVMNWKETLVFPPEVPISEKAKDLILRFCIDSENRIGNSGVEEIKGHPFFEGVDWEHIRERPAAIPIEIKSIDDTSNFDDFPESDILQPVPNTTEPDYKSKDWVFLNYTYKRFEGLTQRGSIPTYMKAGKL", "details": "STK38L (NDR2), LanthaScreen Binding"}}, "note": "Where two headings read alike, the source gives them in different places.", "data": [{"smiles": "N#Cc1cc(-c2ncnc(Nc3ccc(N4CCN(C5COC5)CC4)cc3)n2)ccc1OC1CCOCC1", "note": "[Compound 1, 5-(4-((4-(4-(oxetan-3-yl)piperazin-1-yl)phenyl)amino)-1,3,5-triazin-2-yl)-2-((tetrahydro-2H-pyran-4-yl)oxy)benzonitrile]", "values": [{"measurement": "% Inhibition 1", "setting": "off-target kinases [1]", "value": "−6", "unit": "%"}, {"measurement": "% Inhibition 2", "setting": "off-target kinases [1]", "value": "−17", "unit": "%"}, {"measurement": "% Inhibition Avg", "setting": "off-target kinases [1]", "value": "−12", "unit": "%"}, {"measurement": "inhibition", "setting": "off-target kinases [2]; read-out: % Inhibition 1", "value": 86, "unit": "%"}, {"measurement": "inhibition", "setting": "off-target kinases [2]; read-out: % Inhibition 2", "value": 90, "unit": "%"}, {"measurement": "inhibition", "setting": "off-target kinases [2]; read-out: % Inhibition Avg", "value": 88, "unit": "%"}, {"measurement": "inhibition", "setting": "off-target kinases [3]; read-out: % Inhibition 1", "value": 51, "unit": "%"}, {"measurement": "inhibition", "setting": "off-target kinases [3]; read-out: % Inhibition 2", "value": 52, "unit": "%"}, {"measurement": "inhibition", "setting": "off-target kinases [3]; read-out: % Inhibition Avg", "value": 51, "unit": "%"}, {"measurement": "inhibition", "setting": "off-target kinases [4]; read-out: % Inhibition 1", "value": 30, "unit": "%"}, {"measurement": "inhibition", "setting": "off-target kinases [4]; read-out: % Inhibition 2", "value": 38, "unit": "%"}, {"measurement": "inhibition", "setting": "off-target kinases [4]; read-out: % Inhibition Avg", "value": 34, "unit": "%"}]}]}
